Values quoted from earlier work in US20220177978A1, “METHODS OF PREDICTING AND PREVENTING CANCER IN PATIENTS HAVING PREMALIGNANT LESIONS” (INSERM (Institut National de la Santé et de la Recherche …, priority 2019, published 2022).

Key:
JAK2 = JAK2 (Homo sapiens, UniProt O60674)
Chain of JAK2 (O60674 whole entry, species assumed): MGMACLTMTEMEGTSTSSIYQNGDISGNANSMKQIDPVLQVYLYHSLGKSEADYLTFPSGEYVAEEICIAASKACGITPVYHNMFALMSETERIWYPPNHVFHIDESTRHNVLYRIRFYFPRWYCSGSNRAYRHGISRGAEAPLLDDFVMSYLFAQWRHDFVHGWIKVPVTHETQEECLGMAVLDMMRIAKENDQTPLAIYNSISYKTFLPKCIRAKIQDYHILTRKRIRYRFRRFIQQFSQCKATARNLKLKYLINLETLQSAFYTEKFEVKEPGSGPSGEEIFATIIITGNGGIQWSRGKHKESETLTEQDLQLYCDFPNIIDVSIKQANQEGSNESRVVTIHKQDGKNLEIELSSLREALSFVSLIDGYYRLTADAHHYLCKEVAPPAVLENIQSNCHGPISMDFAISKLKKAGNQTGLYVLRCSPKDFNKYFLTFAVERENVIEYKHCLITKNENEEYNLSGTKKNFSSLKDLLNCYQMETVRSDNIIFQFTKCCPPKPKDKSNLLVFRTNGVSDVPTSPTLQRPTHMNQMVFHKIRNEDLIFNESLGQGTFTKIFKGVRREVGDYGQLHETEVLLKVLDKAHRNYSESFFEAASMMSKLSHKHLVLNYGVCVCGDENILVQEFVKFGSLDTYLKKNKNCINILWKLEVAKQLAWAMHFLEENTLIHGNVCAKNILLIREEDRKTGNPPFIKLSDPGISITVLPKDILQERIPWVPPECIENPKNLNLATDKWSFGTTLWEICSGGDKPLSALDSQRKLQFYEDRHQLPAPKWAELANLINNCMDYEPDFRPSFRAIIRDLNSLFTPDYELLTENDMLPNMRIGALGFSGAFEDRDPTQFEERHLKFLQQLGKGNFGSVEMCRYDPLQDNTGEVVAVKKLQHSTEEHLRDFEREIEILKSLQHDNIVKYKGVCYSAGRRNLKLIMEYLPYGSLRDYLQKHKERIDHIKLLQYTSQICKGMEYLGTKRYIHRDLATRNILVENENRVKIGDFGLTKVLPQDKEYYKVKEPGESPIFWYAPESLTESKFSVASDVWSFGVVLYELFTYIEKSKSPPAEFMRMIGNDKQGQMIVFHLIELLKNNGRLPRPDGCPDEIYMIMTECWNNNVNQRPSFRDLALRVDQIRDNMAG

- IC50 (JAK2): < 1 nM
SMILES: C[C@H](Nc1cc(-c2cnn(C)c2)cc(Nc2cnccn2)n1)c1ccc(F)cc1 [NS018]
- selectivity for JAK2 over other JAK-family kinases (other JAK-family kinases): 30-50 fold
